The subject of one test is STAT3 activity. The test can be described thus: STAT3 luciferase reporter assay in HEK293T cells with IL-6. The test is classed as cell-based, human. To be noted: 20 ng/ml IL-6, 24 hrs, compared with cryptotanshinone. The method, then:
Luciferase activity was measured by the Dual Luciferase Assay Kit (Promega) using a Luminescence Microplate Reader (Biotek). Values were normalized to Renilla luciferase activity of DMSO vehicle.
All data are represented as the average±s.e.m (n=3). Significance was verified by using unpaired two-tailed Student's t-test. *p s 0.05.
For orientation: A reporter such as luciferase makes a cellular process visible.

In test [1] the test system is DNA-binding domain of STAT1, STAT3, STAT5A, STAT5B. The test can be described thus: STAT family DNA binding assay on nuclear extracts of DU145 cells. The test is classed as cell-based, human. To be noted: 5-20 μM, 24 hrs. The protocol: The nuclear extraction was performed according to the STAT Family Transcription Factor Assay Kit (Abcam, ab207228). First, cells were washed with ice-cold PBS and Phosphatase Inhibitors Cocktail (125 mM NaF, […] p-glycerophosphatase, 250 mM PNPP, 25 mM NaVO3) in ice-cold PBVS was added and cells scraped off the dish. Then cells were collected at 300×g for 5 minutes at 4° C. The pellet was resuspended in hypotonic buffer (20 mM Hepes pH7.5, 5 mM NaF, 10 μM Na2MoO4, 0.1 mM EDTA) and 10% NP-40 was added to a final concentration 0.5% and mixed well. The mixture was centrifugated at 4° C. for 30 seconds in a microcentrifuge and supernatant was discarded. […] Stop solution was added when the wells turned medium to dark blue followed by measurement of absorbance at OD 450 nm. […]

The test system of a further test is STAT3. Put plainly: DARTS (drug affinity responsive target stability) assay in EPT3M1-STAT3 cell lysates. The test is classed as binding, human. To be noted: 200 μM. The method, then: EPT3M1-STAT3 cells were lysed with cold M-PER buffer (Thermo Fisher Scientific, Pierce cat.78501) containing protease (Roche, Basel, Switzerland, cat. no. 11836153001) and phosphatase inhibitors (Pierce cat. no. 78420) and centrifugated (18,000×g for 10 min at 4° C.). Lysates were diluted to the same final volume and proteolysed in TNC buffer [50 mM Tris-HCl (pH 8.0), 50 mM NaCl, 10 mM CaCl2]. 200 μM 323-1 or 200 μM 323-2 or the same volume of DMSO were added and incubated for 1 hour at RT. Pronase solution (1.25 mg/ml, 1:100 stock solution) was diluted serially by mixing with 1×TNC buffer to create 1:300, 1:1000, 1:3000 and 1:10000 Pronase stock aliquots. Pronase was added into both DMSO and drug groups and incubated for 30 min at RT. Digestion was stopped by adding 4× loading buffer and heating to 90° C. for 10 min immediately prior to the Western blot assay according to Lomenick, et al. (Proc Natl Acad Sci USA, 2009; 106: 21984-9) and Lomenick wt al. (ACS Chem Biol. 2011; 6: 34-46). […]

In test [2] the test system is DU145, PC3, EPT3M1-STAT3, and 22Rv1 cells. The test can be described thus: In vitro clonogenic assay. To be noted: DU145, PC3, EPT3M1-STAT3, 22Rv1; 2 weeks. The test is classed as cell-based, human. The method, then:
On the second day after seeding single cells, 323-1 and 323-2 were added at various concentrations, and cells were allowed to grow for 2 weeks to form colonies, then stained with 0.4% crystal violet (w/v).

For `C[C@@H]1CCC(c2cc3c4c(cncc4c2)[C@@H](C)C3)=C1C=O` [323-2, (15S,2R)-Delavatine A], the “Inhibitory effect on STAT3 activation (luciferase reporter)” value with STAT3 activity is given as “stronger inhibitory effect on STAT3 activation than cryptotanshinone”. Also, the “Effect on DNA binding of STAT1, STAT3, STAT5A, STAT5B” value in test [1] is on record as “neither 323-1 nor 323-2 affected”. Moreover, in the test on STAT3, the “Digestion of non-target proteins STAT1, JAK2, Src, β-actin” value is “unchanged” and the “Protection of STAT3 against pronase digestion” value is “protection of the target protein STAT3”. Moreover, in test [2], the Colony formation entry is “Concentration-dependent inhibition of colony formation”.

The values are drawn from patent publication US20230286919A1, “ISOQUINOLINE DERIVATIVES FOR USE IN THERAPY” (Vestlandets Innovasjonsselskap AS, priority 2020, published 2023).
